Assay [1] has as its system B16 cells. Briefly: F1/F3 treatment of nude mice bearing tumor model. Conditions: 30 μg intratumoral for 7 days from DAY 3. The class given is in vivo.
Assay [2] deals with B16 cells. The experiment in a line: Apoptosis detection (Annexin V-EGFP kit) in B16 cells. Conditions: 10 μg/mL, cultured overnight, versus P3 control. The class given is cell-based. How it is done: (§1) • 1. An MTT assay was used to detect cell survival condition: 7×10^4 B16 cells per well were cultured overnight with F1/F3 at different concentrations (0, 6, 8, 10, 12, 14, 16, 18, 20 μg/mL) in 4 duplicate wells, and the cell survival condition was detected by using an MTT kit (a product number: C0009M) and an IC50 value was calculated by drawing. Latest results of two independent experiments were shown. • 2. Detection of cell apoptosis: it was divided into a test group and a control group, and the B16 cells were cultured with a complete medium (composed of 1640 basic medium+fetal bovine serum from South American+double antibody (mixed with penicillin and streptomycin at a ratio of 1:1) at a volume ratio of 90:9:1), where Caerin 1.1/Caerin 1.9 was added to the test group with a final concentration of 10 μg/mL, and P3 was added to the control group with a same final concentration of 10 μg/mL. The cells were cultured overnight in a 5% CO2 incubator at 37° C., and their apoptosis conditions were detected by an apoptosis kit (an Annexin V-EGFP apoptosis detection kit, with a product number: C1067M). II. Experimental Results: • 1. In FIG. 1, A represented the cell survival condition at different concentrations, and B represented a calculated survival rate. […] In FIG. 2, A was a cell apoptosis distribution diagram, and B was a statistical analysis result.

For assay [3], the system named is B16 cells. Briefly: In vivo B16 tumor model, intratumoral injection: survival time and tumor weight. Also on record: species or system C57BL/6 mice. To be noted: 30 μg injected daily for 7 days from DAY 3; alone. As to the method: • 1. Experiment objects: 12 C57BL/6 mice were divided into 3 groups with 4 mice in each group. • 2. Experiment method: • 2.1 Detection of tumor weight: A. Each C57BL/6 mouse was subcutaneously inoculated with 4×10^5 B16 cells, and time of tumor bearing was recorded as DAY 0. On DAY 3, the three groups were respectively injected with 100 μL of PBS solution containing 30 μg of F1/F3 (i.e., Caerin 1.1/Caerin 1.9), 100 μL of PBS solution containing 30 μg of P3, and 100 μL of PBS solution for the negative control group every day, administered for 7 consecutive days; B. a modeling method was the same as above, there were 8 mouse in each group, which were killed at DAY 13, and the tumor was taken and weighed. • 2.2 Detection of cell activity: The experimental process was the same as that in 2.1, tumor tissues were taken and treated into single cell suspensions on DAY 13 for flow staining and detected by using a flow cytometer, and selected flow antibodies were as follows: FITC-CD45.2, APC-cy7-CD3e, Percp-cy5.5-CD4, PE-cy7-CD8a, APC-cy7-B220, PE-NK1.1, PE-F4/80, Percp-cy5.5-CD11b, and FVS510 dye. […]

The test system of assay [4] is B16 cells. The experiment in a line: MTT assay for B16 cell survival. The assay is classed as cell-based. To be noted: B16 cells cultured overnight with F1/F3 at 0-20 μg/mL, MTT kit. How it is done: as §1
(Tetrazolium dyes change colour on reduction, which living cells bring about.)

Assay [5] concerns B16 cells. Briefly: MDSC and macrophage proportions in B16 tumor tissue by flow cytometry. The assay is classed as in vivo, C57BL/6 mice. Conditions: 30 μg F1/F3 daily for 7 days, tumor DAY 13, versus PBS. As to the method:
(§2) • 1. Experiment objects: 6 C57BL/6 mice were divided into 2 groups with 3 mice in each group. • 2. Experimental process: Each C57BL/6 mouse was subcutaneously inoculated with 4×10^5 B16 cells, and time of tumor bearing was recorded as DAY 0. The two groups were injected with 100 μL of PBS solution containing 30 μg of F1/F3 (i.e., Caerin 1.1/Caerin 1.9) respectively on DAY 3; and the negative control group was injected with 100 μL of PBS solution every day for consecutive 7 days. B16 tumor tissues were taken and treated into single cell suspensions on DAY 13 for flow staining and detected by using a flow cytometer. Selected antibodies were as follows: FITC-CD45.2, Percp-cy5.5-CD11b, APC-Ly6G, BV421-Ly6c, FVS510 dye, and PE-F4/80. A modeling method was the same as above, splenic organs of mice were taken and processed into single cell suspensions on DAY 13, m-MDSC was sorted by using a flow cytometer, and four groups were set up: a PBS group, a PBS+GMCSF group, an F(F1/F3) group, and an F(F1/F3)+GMCSF group. The sorted cells were counted, each group was provided with two multiple wells, with 100,000 cells each well, 10 ng/ml of GMCSF was added to each group, and after three days of stimulating culture, the cells were detected by using the flow cytometer. Selected antibodies were as follows: FITC-CD45.2, Percp-cy5.5-CD11b, APC-Ly6G, BV421-Ly6c, FVS510 dye, and PE-F4/80. • 3. […]
(In general: In flow cytometry, cells or beads pass a laser one at a time.)

For the next assay, the system named is m-MDSC. The experiment in a line: Sorted splenic m-MDSC, in vitro GMCSF stimulation culture. The assay is classed as cell-based, C57BL/6 mice. To be noted: 10 ng/ml GMCSF, three days culture, compared with the PBS group. How it is done:
as §2

Assay [6] deals with B16 cells. The experiment in a line: Flow cytometry of tumor-infiltrating immune cells after F1/F3 injection. The assay is classed as in vivo, C57BL/6 mice. To be noted: DAY 13, flow cytometry. As to the method:
• 1. Experiment objects: 12 C57BL/6 mice were divided into 3 groups with 4 mice in each group. • 2. Experiment method: • 2.1 Detection of tumor weight: A. Each C57BL/6 mouse was subcutaneously inoculated with 4×10^5 B16 cells, and time of tumor bearing was recorded as DAY 0. On DAY 3, the three groups were respectively injected with 100 μL of PBS solution containing 30 μg of F1/F3 (i.e., Caerin 1.1/Caerin 1.9), 100 μL of PBS solution containing 30 μg of P3, and 100 μL of PBS solution for the negative control group every day, administered for 7 consecutive days; B. a modeling method was the same as above, there were 8 mouse in each group, which were killed at DAY 13, and the tumor was taken and weighed. • 2.2 Detection of cell activity: The experimental process was the same as that in 2.1, tumor tissues were taken and treated into single cell suspensions on DAY 13 for flow staining and detected by using a flow cytometer, and selected flow antibodies were as follows: FITC-CD45.2, APC-cy7-CD3e, Percp-cy5.5-CD4, PE-cy7-CD8a, APC-cy7-B220, PE-NK1.1, PE-F4/80, Percp-cy5.5-CD11b, and FVS510 dye. Changes of macrophage subtypes were detected, tumor tissues were taken and treated into single cell suspensions on DAY 13 for flow staining and detected by using the flow cytometer, and selected flow antibodies were as follows: FITC-CD45.2, PE-F4/80, Percp-cy5.5-CD11b, BV421-Ly6C, and FVS510 dye. • 3. In FIG. 3, A was the survival time of Caerin 1.1/Caerin 1.9 for combined treatment of melanoma-bearing mice, and B was weighted data of tumor size of each group.

A further assay concerns CD47. The experiment in a line: CD47 and SIRPα expression in B16 tumor tissue by flow cytometry. The assay is classed as in vivo, C57BL/6 mice. To be noted: DAY 13, flow cytometry. As to the method:
(§3) • 1. Experiment objects: 21 C57BL/6 mice were divided into 3 groups with 7 mice in each group. • 2. Experiment method: A modeling method was the same as that in Experiment example 3, the experiment was divided into a PBS group, a P3 group and an F1/F3 group, tumor tissues were taken and treated into single cell suspensions on DAY 13 for flow staining and detected by using a flow cytometer, two experiments were carried out continuously, and flow antibodies were selected as follows: FITC-CD45.2, FVS510 dye, and BV421-CD47. • 3. Experimental results: This is a summary of results of two independent experiments, and the specific experimental results were shown in FIG. 9.

Assay in assay [7]: as above
The class given is in vivo, C57BL/6 mice. To be noted: DAY 13, flow cytometry. As to the method: as §3

Ends that are not written are not given here.

For “Caerin 1.1/Caerin 1.9: Caerin 1.1 and Caerin 1.9 polypeptides used together, mass ratio 1:1 (chain 1 GLLSVLGSVAKHVLPHVLPHVVPVIAEHL-NH2; chain 2 GLFGVLGSIAKHVLPHVVPVIAEKL-NH2; not fully specified; ends and bridges not checked)”, the “survival time of tumor-bearing nude mice” value with B16 cells [1] is “significantly prolonged”. Further, the “apoptosis of B16 cells” value with B16 cells [2] is recorded as “significant apoptosis-inducing effect”. Also, the “tumor growth in vivo (survival time, tumor weight)” value with B16 cells [3] is listed as “effectively inhibit tumor growth”. Further, the “IC50 (IC50 half lethal dose), cell survival” value in the assay with B16 cells [4] amounted to 11.76 µg/mL. Moreover, in the assay on B16 cells [5], the “proportion of MDSC, m-MDSC and PMN-MDSC” value was “tended to decrease”; the “proportion of tumor macrophages in CD45.2+ cells” value was “rising trend”. Moreover, the “macrophages after GMCSF stimulus differentiation of splenic m-MDSC” value in the assay on m-MDSC was “more macrophages”. Besides, the “number of tissue-resident macrophages for inhibiting tumor immunity” value in the assay on B16 cells [6] is on record as “decreased”. Also, in the assay on B16 cells [6] (tumor tissue), the “expression of INFα receptors in macrophages” value was “increased”; the “number of CD8+T cells and CD4+T cells” value was “increased”; the “number of inflammatory macrophages for promoting tumor immunity” value is “increased”; the number of macrophages entry is recorded as “increased”. The “expression of CD47 on tumor cells” value with CD47 is “increased obviously”. Besides, the “expression of SIRPα on macrophages” value in [7] is reported as “decreased”.

(Values after US12702702B2, “Application of Caerin 1.1/1.9 combined with anti-CD47 antibody in preparing drug for treating melanoma” (WNL BIOMED TECH PTY. LTD., priority 2022, dated 2026).)
